Earlier results as cited in patent publication US20230218508A1, “BIODEGRADABLE COMPOSITIONS AND IMPLANTS” (RE-VANA THERAPEUTICS LTD, priority 2020, published 2023).

B1: Ranibizumab (antibody, chains of the INN, looked up, V domains shown)
VH: EVQLVESGGGLVQPGGSLRLSCAASGYDFTHYGMNWVRQAPGKGLEWVGWINTYTGEPTYAADFKRRFTFSLDTSKSTAYLQMNSLRAEDTAVYYCAKYPYYYGTSHWYFDVWGQGTLVTVSS
VL: DIQLTQSPSSLSASVGDRVTITCSASQDISNYLNWYQQKPGKAPKVLIYFTSSLHSGVPSRFSGSGSGTDFTLTISSLQPEDFATYYCQQYSTVPWTFGQGTKVEIK
modifications: Fab
notes: Marketed antibody therapeutic (LUCENTIS®) with molecular weight close to Ovalbumin

details: target daily release level; for ranibizumab and BEZ about five times the literature IC50

Question: For Bevacizumab [BEZ], which minimum therapeutic level is on record?
Answer: 0.5 µg/day

Question: With `CC(C)OC(=O)CCC/C=C\C[C@@H]1[C@@H](CC[C@@H](O)CCc2ccccc2)[C@H](O)C[C@@H]1O` [LP, Latanoprost] as the molecule, how does the minimum therapeutic level read?
Answer: 0.105 µg/day

Question: Which minimum therapeutic level does the source give for B1 here?
Answer: 0.5 µg/day
